The record followed here is ChEMBL document CHEMBL3808314, “Discovery and Optimization of Potent, Selective, and in Vivo Efficacious 2-Aryl Benzimidazole BCATm Inhibitors” (ACS Med Chem Lett, 2016).

The test system of data set [1] is Mus musculus. As to the kind of experiment: Increase in luecine level in po dosed C57Black/6J mouse serum administered 5 hrs post fasting state followed by refeeding of amino acid mixture at 6 hrs post dose measured after 1 hr by HPLC method relative to vehicle control. Type of data set: functional, organism-based.
The nature of data set [2]: AUC (0 to infinity) in mouse at 5 mg/kg, po. Conditions: in vivo. Type of data set: ADME, organism-based. More on the design: dose 5 mg/kg, route oral, time infinity.
Data set [3] is described as follows: Half life of compound in mouse at 1 mg/kg, iv. As to conditions: in vivo. Type of data set: ADME, organism-based.
Data set [4] concerns Mus musculus. As to the kind of experiment: Increase in valine level in C57Black/6J mouse serum at 300 mg/kg, po administered 5 hrs post fasting state followed by refeeding of amino acid mixture at 30 mins post dose measured after 1 hr by HPLC method. Type of data set: functional, organism-based.
The test system of data set [5] is Mus musculus. As to the kind of experiment: Increase in valine level in po dosed C57Black/6J mouse serum administered 5 hrs post fasting state followed by refeeding of amino acid mixture at 6 hrs post dose measured after 1 hr by HPLC method relative to vehicle control. Type of data set: functional, organism-based.
The subject of data set [6] is Mus musculus. As to the kind of experiment: Increase in isoluecine level in C57Black/6J mouse serum at 300 mg/kg, po administered 5 hrs post fasting state followed by refeeding of amino acid mixture at 30 mins post dose measured after 1 hr by HPLC method. The class given is functional, organism-based.
Data set [7] is described as follows: Clearance in mouse blood at 1 mg/kg, iv. The class given is ADME, organism-based.
Data set [8] is described as follows: Plasma protein binding in mouse. The class given is ADME, cell-free. Conditions: read-out: PPB (converted).
Data set [9] is described as follows: Oral bioavailability in mouse at 5 mg/kg. Type of data set: ADME, organism-based. Conditions: in vivo.
Data set [10] can be described thus: Cmax in mouse at 5 mg/kg, po. Type of data set: ADME, organism-based. More on the design: dose 5 mg/kg, route oral. Conditions: in vivo.
Data set [11] deals with Mus musculus. As to the kind of experiment: Increase in luecine level in C57Black/6J mouse serum at 300 mg/kg, po administered 5 hrs post fasting state followed by refeeding of amino acid mixture at 30 mins post dose measured after 1 hr by HPLC method. Type of data set: functional, organism-based.
Data set [12] has as its system Mus musculus. Nature of the data set: Increase in isoluecine level in po dosed C57Black/6J mouse serum administered 5 hrs post fasting state followed by refeeding of amino acid mixture at 6 hrs post dose measured after 1 hr by HPLC method relative to vehicle control. Type of data set: functional, organism-based.
Data set [13] can be described thus: Volume of distribution at steady state in mouse at 1 mg/kg, iv. Type of data set: ADME, organism-based. As to conditions: in vivo, read-out: Vdss.
Data set [14] deals with T1, Branched-chain-amino-acid aminotransferase, cytosolic (Homo sapiens, UniProt P54687).
T1 sequence (P54687 whole entry): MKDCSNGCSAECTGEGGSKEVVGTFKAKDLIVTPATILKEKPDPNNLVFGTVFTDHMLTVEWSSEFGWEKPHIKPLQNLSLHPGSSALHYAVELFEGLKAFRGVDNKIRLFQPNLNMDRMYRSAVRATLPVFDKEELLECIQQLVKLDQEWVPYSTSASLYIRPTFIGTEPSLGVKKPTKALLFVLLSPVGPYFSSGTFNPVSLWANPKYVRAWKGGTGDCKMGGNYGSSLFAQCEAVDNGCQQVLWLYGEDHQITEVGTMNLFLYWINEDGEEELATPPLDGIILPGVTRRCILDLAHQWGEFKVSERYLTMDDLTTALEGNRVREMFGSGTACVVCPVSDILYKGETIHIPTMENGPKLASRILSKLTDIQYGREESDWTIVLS
As to the kind of experiment: Inhibition of BCATc (unknown origin).

Molecules are shown by their SMILES. Activity calls are given as the source filed them.

Usually AUC(0-inf) stands for the area under the concentration-time curve extrapolated to infinity. Low values mean less exposure, high ones more exposure. The half-life is the time needed for the level to fall by half in the phase considered. Higher therefore signals slow decline. As a reminder, the clearance is a measure of how efficiently the substance is removed, as volume per time. Higher therefore signals efficient removal. What is called bioavailability is the share of a dose that reaches the circulation, judged against a reference dose that is usually intravenous. A higher bioavailability goes with much systemic uptake. In general, Cmax refers to the maximum level reached in the sampled fluid or tissue. In general, IC50 refers to the concentration that gives 50% inhibition. Higher therefore signals weaker potency in that assay.

On to `CNC(=O)c1ccc2c(c1)nc(-c1ccccn1)n2[C@@H]1CCC[C@H](NC(=O)c2ccc(Br)s2)C1` (relative stereo), for which the Activity entry in the data set with Mus musculus [1], with Mus musculus [5] and in the data set on Mus musculus [12] was “Dose-dependent effect” throughout. In data set [2], the area under the curve AUC(0-inf) amounted to 5810 ng·h/mL. The same molecule showed a half-life in [3] of 3.7 h. Moreover, the outcome with Mus musculus [4], with Mus musculus [6] and in the data set with Mus musculus [11] was Active. Further, in [7], the clearance was 4 mL/min/kg. Besides, the fraction unbound in [8] is 0.029. This molecule had a bioavailability in data set [9] of 28%. The same molecule gave a peak concentration (Cmax) in data set [10] of 1650 ng/mL. For the same molecule, the Vd in data set [13] is 0.9 L/kg. Besides, half-maximal inhibition in data set [14] (IC50) required 3980 nM.

In turn, `CNC(=O)c1ccc2c(c1)nc(-c1ccccc1SC)n2[C@@H]1CCC[C@H](NC(=O)c2ccc(Br)s2)C1` (relative stereo) returned a total exposure AUC(0-inf) in data set [2] of 338 ng·h/mL. The molecule further showed a half-life in data set [3] of 1.4 h. The same molecule gave a clearance in [7] of 23 mL/min/kg. Further, the fraction unbound in data set [8] was 0.005. The molecule also registered a bioavailability in data set [9] of 10%. Moreover, the Cmax in data set [10] amounted to 129 ng/mL. Besides, the Vd in [13] was 1.3 L/kg. Further, in [14], the concentration for half-maximal inhibition (IC50) was 1260 nM.
